Measured values reported in patent publication US10980889B1 (Revolution Medicines, Inc., priority 2018, dated 2021).

Assays:
P-P70S6K (T389) = experiment: Cell based AlphaLISA assay, inhibition of P-P70S6K (T389) in MDA-MB-468 cells (mTORC1 substrate); conditions: Homo sapiens, 4 h, AlphaLisa, two to four hours at 37° C., read-out: pIC50 for Inhibition of mTORC1 and mTORC2 Substrate Phosphorylation p-P70S6K-(T389) (converted)
Procedure, shortened: (§1)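 In MDA-MB-468 cells, phosphorylation of 4EBP1 (Thr37/46), P70S6K (Thr389) and AKT (Ser473) was measured after incubation with inhibitor by AlphaLISA SureFire Ultra on cell lysates, in duplicate. IC50 values came from control-normalized concentration-response regression.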

P-4E-BP1 (T37/46) = experiment: Cell based AlphaLISA assay, inhibition of P-4E-BP1 (T37/46) in MDA-MB-468 cells (mTORC1 substrate); conditions: Homo sapiens, 4 h, AlphaLisa, two to four hours at 37° C., read-out: pIC50 for Inhibition of mTORC1 and mTORC2 Substrate Phosphorylation P-4E-BP1-(T37/46) (converted)
Procedure, shortened: as §1

P-Akt (S473) = experiment: Cell based AlphaLISA assay, inhibition of P-Akt (S473) in MDA-MB-468 cells (mTORC2 substrate); conditions: Homo sapiens, 4 h, AlphaLisa, two to four hours at 37° C., read-out: pIC50 for Inhibition of mTORC1 and mTORC2 Substrate Phosphorylation p-AKT1/2/3-(S473) (converted)
Procedure, shortened: as §1

Compound	IC50 (P-P70S6K (T389)) [nM]	IC50 (P-4E-BP1 (T37/46)) [nM]	IC50 (P-Akt (S473)) [nM]
CO[C@H]1C[C@@H]2CC[C@@H](C)[C@@](O)(O2)C(=O)C(=O)N2CCCC[C@H]2C(=O)O[C@H]([C@H](C)C[C@@H]2CC[C@@H](OC(=O)NCc3cnc(N4CCN(C(=O)CCOCCN5CCN(c6ncc(C(=O)NCCS(=O)(=O)c7ccc(C(=O)N8CCOc9ccc(-c%10ccc(N)nc%10)cc9C8)c(C)c7F)cn6)CC5)CC4)nc3)[C@H](OC)C2)C[C@@H](OC)[C@H](C)/C=C(\C)[C@@H](O)[C@@H](OC)C(=O)[C@H](C)C[C@H](C)/C=C/C=C/C=C/1C [Example 123]	< 1	< 3.16	31.6 to 1000
CO[C@H]1C[C@@H]2CC[C@@H](C)[C@@](O)(O2)C(=O)C(=O)N2CCCC[C@H]2C(=O)O[C@H]([C@H](C)C[C@@H]2CC[C@@H](OC(=O)NCc3cnc(N4CCN(C(=O)CCOCCN5CCN(c6ncc(C(=O)NCCS(=O)(=O)c7ccc(C(=O)N8CCOc9ccc(-c%10ccc(N)nc%10)cc9C8)c(C)c7)cn6)CC5)CC4)nc3)[C@H](OC)C2)CC(=O)[C@H](C)/C=C(\C)[C@@H](O)[C@@H](OC)C(=O)[C@H](C)C[C@H](C)/C=C/C=C/C=C/1C [Example 124]	< 1	< 3.16	3.16 to 31.6
CO[C@H]1C[C@@H]2CC[C@@H](C)[C@@](O)(O2)C(=O)C(=O)N2CCCC[C@H]2C(=O)O[C@H]([C@H](C)C[C@@H]2CC[C@@H](OC(=O)NCc3cnc(N4CCN(C(=O)CCOCCN5CCN(c6ncc(C(=O)NCCS(=O)(=O)c7ccc(C(=O)N8CCOc9ccc(-c%10ccc(N)nc%10)cc9C8)c(C)c7)cn6)CC5)CC4)nc3)[C@H](OC)C2)C[C@@H](O)[C@H](C)/C=C(\C)[C@@H](O)[C@@H](OC)C(=O)[C@H](C)C[C@H](C)/C=C/C=C/C=C/1C [Example 125]	< 1	< 3.16	3.16 to 31.6
CO[C@H]1C[C@@H]2CC[C@@H](C)[C@@](O)(O2)C(=O)C(=O)N2CCCC[C@H]2C(=O)O[C@H]([C@H](C)C[C@@H]2CC[C@@H](OC(=O)NCc3cnc(N4CCN(C(=O)CCOCCOCCN5CCN(c6ncc(C(=O)N7CCc8cc(Cn9nc(-c%10ccc%11[nH]ccc%11c%10)c%10c(N)ncnc%109)ccc8C7)cn6)CC5)CC4)nc3)[C@H](OC)C2)CC(=O)[C@H](C)/C=C(\C)[C@@H](O)[C@@H](OC)C(=O)[C@H](C)C[C@H](C)/C=C/C=C/C=C/1C [Example 126]	< 1	3.16 to 31.6	> 1000
CO[C@H]1C[C@@H]2CC[C@@H](C)[C@@](O)(O2)C(=O)C(=O)N2CCCC[C@H]2C(=O)O[C@H]([C@H](C)C[C@@H]2CC[C@@H](OC(=O)N3CCc4nc(N5CCN(C(=O)CCOCCN6CCN(c7ncc(C(=O)N8CCc9cc(Cn%10nc(-c%11ccc%12[nH]ccc%12c%11)c%11c(N)ncnc%11%10)ccc9C8)cn7)CC6)CC5)ncc4C3)[C@H](OC)C2)CC(=O)[C@H](C)/C=C(\C)[C@@H](O)[C@@H](OC)C(=O)[C@H](C)C[C@H](C)/C=C/C=C/C=C/1C [Example 127]	< 1	3.16 to 31.6	> 1000
CO[C@H]1C[C@@H]2CC[C@@H](C)[C@@](O)(O2)C(=O)C(=O)N2CCCC[C@H]2C(=O)O[C@H]([C@H](C)C[C@@H]2CC[C@@H](OC(=O)NCc3cnc(N4CCN(CCOCCN5CCN(c6ncc(C(=O)N7CCc8cc(Cn9nc(-c%10ccc%11oc(N)nc%11c%10)c%10c(N)ncnc%109)ccc8C7)cn6)CC5)CC4)nc3)[C@H](OC)C2)C[C@@H](OC)[C@H](C)/C=C(\C)[C@@H](O)[C@@H](OC)C(=O)[C@H](C)C[C@H](C)/C=C/C=C/C=C/1C [Example 128]	< 1	3.16 to 31.6	31.6 to 1000
CO[C@H]1C[C@@H]2CC[C@@H](C)[C@@](O)(O2)C(=O)C(=O)N2CCCC[C@H]2C(=O)O[C@H]([C@H](C)C[C@@H]2CC[C@@H](OC(=O)N3CCc4nc(N5CCN(CCOCCN6CCN(c7ncc(C(=O)N8CCc9cc(Cn%10nc(-c%11ccc%12oc(N)nc%12c%11)c%11c(N)ncnc%11%10)ccc9C8)cn7)CC6)CC5)ncc4C3)[C@H](OC)C2)C[C@@H](OC)[C@H](C)/C=C(\C)[C@@H](O)[C@@H](OC)C(=O)[C@H](C)C[C@H](C)/C=C/C=C/C=C/1C [Example 129]	< 1	< 3.16	> 1000
CO[C@H]1C[C@@H]2CC[C@@H](C)[C@@](O)(O2)C(=O)C(=O)N2CCCC[C@H]2C(=O)O[C@H]([C@H](C)C[C@@H]2CC[C@@H](OC(=O)NCc3cnc(N4CCN(CCOCCN5CCN(c6ncc(C(=O)N7CCc8cc(Cn9nc(-c%10ccc%11[nH]ccc%11c%10)c%10c(N)ncnc%109)ccc8C7)cn6)CC5)CC4)nc3)[C@H](OC)C2)CC(=O)[C@H](C)/C=C(\C)[C@@H](O)[C@@H](OC)C(=O)[C@H](C)C[C@H](C)/C=C/C=C/C=C/1C [Example 130]	< 1	< 3.16	> 1000
CO[C@H]1C[C@@H]2CC[C@@H](C)[C@@](O)(O2)C(=O)C(=O)N2CCCC[C@H]2C(=O)O[C@H]([C@H](C)C[C@@H]2CC[C@@H](OC(=O)N3CCc4nc(N5CCN(CCOCCN6CCN(c7ncc(C(=O)N8CCc9cc(Cn%10nc(-c%11ccc%12[nH]ccc%12c%11)c%11c(N)ncnc%11%10)ccc9C8)cn7)CC6)CC5)ncc4C3)[C@H](OC)C2)CC(=O)[C@H](C)/C=C(\C)[C@@H](O)[C@@H](OC)C(=O)[C@H](C)C[C@H](C)/C=C/C=C/C=C/1C [Example 131]	< 1	< 3.16	3.16 to 31.6
CO[C@H]1C[C@@H]2CC[C@@H](C)[C@@](O)(O2)C(=O)C(=O)N2CCCC[C@H]2C(=O)O[C@H]([C@H](C)C[C@@H]2CC[C@@H](OC(=O)NCc3cnc(N4CCN(C(=O)CCOCCN5CCN(C(=O)CCC(=O)N6CCc7cc(Cn8nc(-c9ccc%10oc(N)nc%10c9)c9c(N)ncnc98)ccc7C6)CC5)CC4)nc3)[C@H](OC)C2)C[C@@H](O)[C@H](C)/C=C(\C)[C@@H](O)[C@@H](OC)C(=O)[C@H](C)C[C@H](C)/C=C/C=C/C=C/1C [Example 132]	< 1	< 3.16	3.16 to 31.6
CO[C@H]1C[C@@H]2CC[C@@H](C)[C@@](O)(O2)C(=O)C(=O)N2CCCC[C@H]2C(=O)O[C@H]([C@H](C)C[C@@H]2CC[C@@H](OC(=O)NCc3cnc(N4CCN(C(=O)CCOCCN5CCN(C(=O)CCC(=O)N6CCc7cc(Cn8nc(-c9ccc%10oc(N)nc%10c9)c9c(N)ncnc98)ccc7C6)CC5)CC4)nc3)[C@H](OC)C2)C[C@@H](OC)[C@H](C)/C=C(\C)[C@@H](O)[C@@H](OC)C(=O)[C@H](C)C[C@H](C)/C=C/C=C/C=C/1C [Example 133]	< 1	< 3.16	3.16 to 31.6
CO[C@H]1C[C@@H]2CC[C@@H](C)[C@@](O)(O2)C(=O)C(=O)N2CCCC[C@H]2C(=O)O[C@H]([C@H](C)C[C@@H]2CC[C@@H](OC(=O)NCc3cnc(N4CCN(C(=O)CCOCCN5CCN(c6ncc(C(=O)N7CCc8cc(Cn9nc(-c%10ccc%11oc(N)nc%11c%10)c%10c(N)ncnc%109)ccc8C7)cn6)CC5)[C@@H](C(=O)O)C4)nc3)[C@H](OC)C2)C[C@@H](OC)[C@H](C)/C=C(\C)[C@@H](O)[C@@H](OC)C(=O)[C@H](C)C[C@H](C)/C=C/C=C/C=C/1C [Example 134]	< 1	< 3.16	> 1000
CO[C@H]1C[C@@H]2CC[C@@H](C)[C@@](O)(O2)C(=O)C(=O)N2CCCC[C@H]2C(=O)O[C@H]([C@H](C)C[C@@H]2CC[C@@H](OC(=O)NCc3cnc(N4CCN(C(=O)CCOCCN5CCN(c6ncc(C(=O)N7CCc8cc(Cn9nc(-c%10cnc%11[nH]ccc%11c%10)c%10c(N)ncnc%109)ccc8C7)cn6)CC5)[C@@H](C(=O)O)C4)nc3)[C@H](OC)C2)CC(=O)[C@H](C)/C=C(\C)[C@@H](O)[C@@H](OC)C(=O)[C@H](C)C[C@H](C)/C=C/C=C/C=C/1C [Example 135]	< 1	> 1000	> 1000
CO[C@H]1C[C@@H]2CC[C@@H](C)[C@@](O)(O2)C(=O)C(=O)N2CCCC[C@H]2C(=O)O[C@H]([C@H](C)C[C@@H]2CC[C@@H](O)[C@H](OC)C2)CC(=O)[C@H](C)/C=C(\C)[C@@H](OC(=O)NCc2cnc(N3CCN(C(=O)CCOCCN4CCN(c5ncc(C(=O)N6CCc7cc(Cn8nc(-c9ccc%10oc(N)nc%10c9)c9c(N)ncnc98)ccc7C6)cn5)CC4)CC3)nc2)[C@@H](OC)C(=O)[C@H](C)C[C@H](C)/C=C/C=C/C=C/1C [Example 136]	< 1	3.16 to 31.6	3.16 to 31.6
CO[C@H]1C[C@@H]2CC[C@@H](C)[C@@](O)(O2)C(=O)C(=O)N2CCCC[C@H]2C(=O)O[C@H]([C@H](C)C[C@@H]2CC[C@@H](OC(=O)NCc3cnc(N4CCN(C(=O)CCOCCN5CCN(c6ncc(C(=O)N7CCc8cc(Cn9nc(-c%10ccc%11oc(N)nc%11c%10)c%10c(N)ncnc%109)ccc8C7)cn6)CC5)CC4)nc3)[C@H](OC)C2)C[C@H](N=[N+]=[N-])[C@H](C)/C=C(\C)[C@@H](O)[C@@H](OC)C(=O)[C@H](C)C[C@H](C)/C=C/C=C/C=C/1C [Example 137]	< 1	< 3.16	3.16 to 31.6
CO[C@H]1C[C@@H]2CC[C@@H](C)[C@@](O)(O2)C(=O)C(=O)N2CCCC[C@H]2C(=O)O[C@H]([C@H](C)C[C@@H]2CC[C@@H](OC(=O)NCc3cnc(N4CCN(c5ncc(C(=O)N6CCN(c7ncc(C(=O)NCCCCn8nc(-c9ccc%10oc(N)nc%10c9)c9c(N)ncnc98)cn7)CC6)cn5)CC4)nc3)[C@H](OC)C2)CC(=O)[C@H](C)/C=C(\C)[C@@H](O)[C@@H](OC)C(=O)[C@H](C)C[C@H](C)/C=C/C=C/C=C/1C [Example 138]	< 1	< 3.16	< 3.16
